# Test results reported in US12583884B2, “3beta-(benzyloxy)-17alpha-methyl-pregn-5-en-20-one for use in the treatment of cognitive disorders” (AELIS FARMA, priority 2018, dated 2026).
# Like-named read-outs stand apart in the source and are kept apart here.
# Tests used:
# [1] = molecular target: Opioid and opioid-like NOP (ORL1) (Homo sapiens, UniProt P41146); assay: CEREP binding profile: NOP; settings: 10 μM
# From the text: (§1) The CEREP High-throughput profile consists of a broad collection of 80 transmembrane and soluble receptors, ion channels and G-Protein coupled receptors.
# Serotonin 5-HT1A = molecular target: T1, Serotonin 5-HT1A (Homo sapiens, UniProt P08908); assay: CEREP binding profile: 5-HT1A
# T1 construct: CEREP (contract panel)
# From the text: as §1
# Serotonin 5-HT2A = molecular target: T2, Serotonin 5-HT2A (Homo sapiens, UniProt P28223); assay: CEREP binding profile: 5-HT2A
# T2 construct: CEREP (contract panel)
# From the text: as §1
# Vasopressin V1a = molecular target: T3, Vasopressin V1a (Homo sapiens, UniProt P37288); assay: CEREP binding profile: V1a
# T3 construct: CEREP (contract panel)
# From the text: as §1
# Muscarinic M3 = Muscarinic M3 (Homo sapiens, UniProt P20309); assay: CEREP binding profile: M3
# From the text: as §1
# GABA BZD (central) = assay: CEREP binding profile: BZD (central); settings: 10 μM
# From the text: as §1
# Adenosine A1 = molecular target: T4, Adenosine A1 (Homo sapiens, UniProt P30542); assay: CEREP binding profile: A1
# T4 construct: CEREP
# T4 sequence (P30542 whole entry): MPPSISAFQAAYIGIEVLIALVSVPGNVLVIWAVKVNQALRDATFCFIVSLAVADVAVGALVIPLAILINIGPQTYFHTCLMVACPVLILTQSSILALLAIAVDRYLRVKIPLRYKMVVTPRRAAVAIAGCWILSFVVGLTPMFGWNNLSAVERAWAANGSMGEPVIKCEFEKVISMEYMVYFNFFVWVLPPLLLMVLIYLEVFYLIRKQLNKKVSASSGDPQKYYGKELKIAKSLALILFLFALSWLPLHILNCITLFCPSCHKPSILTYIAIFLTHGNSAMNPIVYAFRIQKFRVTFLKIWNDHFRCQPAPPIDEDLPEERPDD
# From the text: as §1
# Prostanoid IP (PGI2) = Prostanoid IP (PGI2) (Homo sapiens, UniProt P43119); assay: CEREP binding profile: IP
# Chain of Prostanoid IP (PGI2) (P43119 whole entry): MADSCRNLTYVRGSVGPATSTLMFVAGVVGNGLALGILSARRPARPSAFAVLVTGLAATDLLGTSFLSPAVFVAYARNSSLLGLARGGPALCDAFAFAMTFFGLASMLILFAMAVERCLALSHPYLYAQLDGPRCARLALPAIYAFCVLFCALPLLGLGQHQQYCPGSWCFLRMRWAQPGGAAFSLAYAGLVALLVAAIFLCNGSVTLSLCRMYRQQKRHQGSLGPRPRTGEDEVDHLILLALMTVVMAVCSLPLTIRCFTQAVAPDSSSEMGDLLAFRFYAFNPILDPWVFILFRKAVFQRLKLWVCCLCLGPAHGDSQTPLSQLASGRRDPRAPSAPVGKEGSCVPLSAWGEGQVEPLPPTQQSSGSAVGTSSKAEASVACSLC
# From the text: as §1
# Endothelin ETB = molecular target: T5, Endothelin ETB (Homo sapiens, UniProt P24530); assay: CEREP binding profile: ETB
# T5 construct: CEREP
# T5 sequence (P24530 27-442): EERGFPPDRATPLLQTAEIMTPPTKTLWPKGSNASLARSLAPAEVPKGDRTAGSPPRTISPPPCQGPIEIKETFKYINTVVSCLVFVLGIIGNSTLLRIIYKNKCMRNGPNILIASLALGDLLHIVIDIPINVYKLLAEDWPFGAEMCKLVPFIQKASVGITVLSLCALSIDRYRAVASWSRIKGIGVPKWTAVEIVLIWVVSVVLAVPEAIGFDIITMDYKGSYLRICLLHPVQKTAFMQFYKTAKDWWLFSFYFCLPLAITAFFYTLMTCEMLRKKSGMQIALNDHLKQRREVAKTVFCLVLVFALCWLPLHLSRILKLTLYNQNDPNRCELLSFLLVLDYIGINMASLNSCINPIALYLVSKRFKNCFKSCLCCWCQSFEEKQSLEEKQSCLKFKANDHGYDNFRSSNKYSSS
# From the text: as §1
# Neuropetide Y N1 = Neuropetide Y N1 (Homo sapiens, UniProt P25929); assay: CEREP binding profile: N1
# Chain of Neuropetide Y N1 (P25929 whole entry): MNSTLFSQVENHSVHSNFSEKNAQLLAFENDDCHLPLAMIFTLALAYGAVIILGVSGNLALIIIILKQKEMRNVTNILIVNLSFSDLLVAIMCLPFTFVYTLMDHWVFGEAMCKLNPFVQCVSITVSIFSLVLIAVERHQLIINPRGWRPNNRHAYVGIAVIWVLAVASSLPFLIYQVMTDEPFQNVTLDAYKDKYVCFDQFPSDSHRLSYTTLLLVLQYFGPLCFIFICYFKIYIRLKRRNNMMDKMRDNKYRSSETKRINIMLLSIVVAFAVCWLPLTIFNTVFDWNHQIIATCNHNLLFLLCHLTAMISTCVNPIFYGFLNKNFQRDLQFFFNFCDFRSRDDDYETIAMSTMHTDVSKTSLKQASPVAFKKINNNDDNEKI
# From the text: as §1
# Histamine H2 = Histamine H2 (Homo sapiens, UniProt P25021); assay: CEREP binding profile: H2
# From the text: as §1
# Neurokinin NK3 = Neurokinin NK3 (Homo sapiens, UniProt P29371); assay: CEREP binding profile: NK3
# From the text: as §1
# Cannabinoid CB1 = molecular target: T6, Cannabinoid CB1 (Homo sapiens, UniProt P21554); assay: CEREP binding profile: CB1
# T6 construct: CEREP
# From the text: as §1
# Dopamine D2S = molecular target: T7, Dopamine D2S (Homo sapiens, UniProt P14416); assay: CEREP binding profile: D2S
# T7 construct: CEREP
# From the text: as §1
# Purinergic P2Y = assay: CEREP binding profile: P2Y; settings: 10 μM
# From the text: as §1
# Histamine H1 = Histamine H1 (Homo sapiens, UniProt P35367); assay: CEREP binding profile: H1
# From the text: as §1
# [2] = molecular target: T8, Steroid nuclear receptors PR (Homo sapiens, UniProt P06401); assay: Binding: PR
# T8 construct: CEREP
# T8 sequence (P06401 1-933): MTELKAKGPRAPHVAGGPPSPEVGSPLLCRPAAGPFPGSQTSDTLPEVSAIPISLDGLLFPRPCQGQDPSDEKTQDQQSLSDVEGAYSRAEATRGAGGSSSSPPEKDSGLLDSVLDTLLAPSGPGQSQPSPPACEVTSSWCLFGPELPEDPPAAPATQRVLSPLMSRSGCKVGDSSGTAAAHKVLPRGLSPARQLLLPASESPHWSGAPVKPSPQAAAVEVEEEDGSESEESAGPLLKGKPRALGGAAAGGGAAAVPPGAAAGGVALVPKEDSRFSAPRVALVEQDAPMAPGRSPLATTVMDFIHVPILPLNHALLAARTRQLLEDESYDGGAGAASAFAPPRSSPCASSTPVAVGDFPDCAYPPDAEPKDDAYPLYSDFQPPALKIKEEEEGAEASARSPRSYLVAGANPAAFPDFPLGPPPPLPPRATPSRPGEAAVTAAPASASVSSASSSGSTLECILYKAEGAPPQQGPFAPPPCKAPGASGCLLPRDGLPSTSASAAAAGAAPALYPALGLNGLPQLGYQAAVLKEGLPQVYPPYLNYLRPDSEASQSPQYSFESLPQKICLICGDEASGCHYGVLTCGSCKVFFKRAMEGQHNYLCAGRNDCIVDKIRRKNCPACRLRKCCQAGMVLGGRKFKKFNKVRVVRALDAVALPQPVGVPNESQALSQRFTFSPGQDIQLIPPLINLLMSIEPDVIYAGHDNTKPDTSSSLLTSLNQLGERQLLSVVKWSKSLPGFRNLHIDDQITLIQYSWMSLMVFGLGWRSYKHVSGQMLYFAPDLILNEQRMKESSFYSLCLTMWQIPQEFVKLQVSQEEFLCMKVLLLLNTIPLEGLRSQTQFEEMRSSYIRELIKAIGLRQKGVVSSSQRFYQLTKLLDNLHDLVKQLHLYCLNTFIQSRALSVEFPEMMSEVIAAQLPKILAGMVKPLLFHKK
# From the text: as §1
# Adrenergic beta2 = molecular target: T9, Adrenergic beta2 (Homo sapiens, UniProt P07550); assay: CEREP binding profile: beta2
# T9 construct: CEREP
# From the text: as §1
# Prostanoid EP4 = Prostanoid EP4 (Homo sapiens, UniProt P35408); assay: CEREP binding profile: EP4
# Chain of Prostanoid EP4 (P35408 whole entry): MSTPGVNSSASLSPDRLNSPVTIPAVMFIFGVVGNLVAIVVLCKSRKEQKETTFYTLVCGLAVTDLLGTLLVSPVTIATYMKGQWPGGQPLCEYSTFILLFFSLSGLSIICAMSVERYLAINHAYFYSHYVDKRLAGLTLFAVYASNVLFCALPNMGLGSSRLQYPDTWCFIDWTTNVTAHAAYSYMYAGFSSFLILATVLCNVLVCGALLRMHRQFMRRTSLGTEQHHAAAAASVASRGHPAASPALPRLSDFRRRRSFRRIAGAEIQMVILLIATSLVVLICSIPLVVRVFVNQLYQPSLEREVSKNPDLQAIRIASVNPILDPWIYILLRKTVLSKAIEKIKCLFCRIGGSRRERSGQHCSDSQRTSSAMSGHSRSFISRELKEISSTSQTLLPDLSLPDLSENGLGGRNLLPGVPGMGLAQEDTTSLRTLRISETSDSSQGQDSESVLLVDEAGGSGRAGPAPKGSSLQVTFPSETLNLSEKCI
# From the text: as §1
# Muscarinic M1 = Muscarinic M1 (Homo sapiens, UniProt P11229); assay: CEREP binding profile: M1
# Chain of Muscarinic M1 (P11229 whole entry): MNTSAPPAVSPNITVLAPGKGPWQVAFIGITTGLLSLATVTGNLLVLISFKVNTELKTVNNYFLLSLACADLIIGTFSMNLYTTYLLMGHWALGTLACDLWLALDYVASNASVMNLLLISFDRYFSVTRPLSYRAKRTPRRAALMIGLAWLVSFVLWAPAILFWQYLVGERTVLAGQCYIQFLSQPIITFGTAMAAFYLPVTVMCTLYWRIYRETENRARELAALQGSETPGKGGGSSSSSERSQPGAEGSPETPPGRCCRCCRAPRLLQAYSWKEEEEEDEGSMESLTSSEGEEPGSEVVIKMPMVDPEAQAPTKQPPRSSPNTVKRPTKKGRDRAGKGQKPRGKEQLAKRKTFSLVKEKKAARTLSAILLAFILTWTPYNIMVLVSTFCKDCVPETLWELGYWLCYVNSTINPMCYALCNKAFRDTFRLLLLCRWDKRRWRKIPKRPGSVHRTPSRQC
# From the text: as §1
# Ca2+ channels Ca2+-L = assay: CEREP binding profile: Ca2+-L; settings: 10 μM
# From the text: as §1
# Adenosine A3 = molecular target: T10, Adenosine A3 (Homo sapiens, UniProt P0DMS8); assay: CEREP binding profile: A3
# T10 construct: CEREP
# T10 sequence (P0DMS8 whole entry): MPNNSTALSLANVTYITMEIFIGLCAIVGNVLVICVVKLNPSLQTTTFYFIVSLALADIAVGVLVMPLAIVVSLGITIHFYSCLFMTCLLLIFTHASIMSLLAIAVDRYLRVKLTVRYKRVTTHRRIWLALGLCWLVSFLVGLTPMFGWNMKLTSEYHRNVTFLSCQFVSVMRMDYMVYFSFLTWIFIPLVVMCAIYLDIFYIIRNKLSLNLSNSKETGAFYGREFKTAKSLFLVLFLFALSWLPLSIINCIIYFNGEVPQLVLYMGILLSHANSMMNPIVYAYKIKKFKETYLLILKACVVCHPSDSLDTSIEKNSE
# From the text: as §1
# [3] = molecular target: T11, Transporters Serotonin 5-HT trans. (Homo sapiens, UniProt P31645); assay: CEREP binding profile: 5-HT trans.
# T11 construct: CEREP (contract panel)
# T11 sequence (P31645 whole entry): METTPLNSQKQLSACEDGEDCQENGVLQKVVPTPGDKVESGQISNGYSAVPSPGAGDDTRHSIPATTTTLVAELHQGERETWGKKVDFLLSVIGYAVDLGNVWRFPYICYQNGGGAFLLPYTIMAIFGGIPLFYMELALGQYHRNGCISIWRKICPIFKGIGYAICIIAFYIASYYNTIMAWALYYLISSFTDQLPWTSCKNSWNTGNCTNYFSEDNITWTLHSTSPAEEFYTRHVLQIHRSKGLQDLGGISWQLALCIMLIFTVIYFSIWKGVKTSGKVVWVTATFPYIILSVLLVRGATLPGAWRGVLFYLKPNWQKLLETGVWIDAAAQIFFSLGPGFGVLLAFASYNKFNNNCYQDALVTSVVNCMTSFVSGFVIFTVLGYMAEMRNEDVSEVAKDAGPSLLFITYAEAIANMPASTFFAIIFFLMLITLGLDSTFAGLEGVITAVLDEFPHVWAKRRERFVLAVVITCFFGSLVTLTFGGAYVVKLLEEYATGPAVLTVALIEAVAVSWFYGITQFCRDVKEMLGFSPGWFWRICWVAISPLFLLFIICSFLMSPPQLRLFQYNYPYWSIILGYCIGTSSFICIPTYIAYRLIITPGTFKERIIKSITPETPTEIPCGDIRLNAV
# From the text: as §1
# Galanin GAL2 = Galanin GAL2 (Homo sapiens, UniProt O43603); assay: CEREP binding profile: GAL2
# Chain of Galanin GAL2 (O43603 whole entry): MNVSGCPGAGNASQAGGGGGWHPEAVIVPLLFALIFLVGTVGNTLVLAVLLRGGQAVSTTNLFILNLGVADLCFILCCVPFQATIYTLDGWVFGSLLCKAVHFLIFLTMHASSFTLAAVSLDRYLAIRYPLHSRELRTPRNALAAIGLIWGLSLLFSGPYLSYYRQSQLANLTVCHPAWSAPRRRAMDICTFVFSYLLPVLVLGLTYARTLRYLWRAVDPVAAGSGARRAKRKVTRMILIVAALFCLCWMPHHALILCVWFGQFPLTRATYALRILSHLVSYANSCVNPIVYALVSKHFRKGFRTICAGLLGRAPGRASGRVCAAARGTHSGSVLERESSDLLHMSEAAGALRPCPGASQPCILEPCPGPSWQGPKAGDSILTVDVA
# From the text: as §1
# Muscarinic M4 = Muscarinic M4 (Homo sapiens, UniProt P08173); assay: CEREP binding profile: M4
# From the text: as §1
# Dopamine D4.4 = molecular target: T12, Dopamine D4.4 (Homo sapiens, UniProt P21917); assay: CEREP binding profile: D4.4
# T12 construct: CEREP
# T12 sequence (P21917 whole entry): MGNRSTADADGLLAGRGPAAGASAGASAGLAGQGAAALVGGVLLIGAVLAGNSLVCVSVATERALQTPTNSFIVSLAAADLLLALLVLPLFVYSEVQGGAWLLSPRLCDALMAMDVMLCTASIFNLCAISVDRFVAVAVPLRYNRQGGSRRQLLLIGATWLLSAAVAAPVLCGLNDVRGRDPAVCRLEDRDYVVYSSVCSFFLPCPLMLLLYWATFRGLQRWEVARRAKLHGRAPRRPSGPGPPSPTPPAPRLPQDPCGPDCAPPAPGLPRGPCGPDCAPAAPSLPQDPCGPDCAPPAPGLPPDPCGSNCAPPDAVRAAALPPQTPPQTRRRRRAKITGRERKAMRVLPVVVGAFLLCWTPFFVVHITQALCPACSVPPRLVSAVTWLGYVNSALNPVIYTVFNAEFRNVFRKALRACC
# From the text: as §1
# Serotonin 5-HT5a = molecular target: T13, Serotonin 5-HT5a (Homo sapiens, UniProt P47898); assay: CEREP binding profile: 5-HT5a
# T13 construct: CEREP (contract panel)
# T13 sequence (P47898 whole entry): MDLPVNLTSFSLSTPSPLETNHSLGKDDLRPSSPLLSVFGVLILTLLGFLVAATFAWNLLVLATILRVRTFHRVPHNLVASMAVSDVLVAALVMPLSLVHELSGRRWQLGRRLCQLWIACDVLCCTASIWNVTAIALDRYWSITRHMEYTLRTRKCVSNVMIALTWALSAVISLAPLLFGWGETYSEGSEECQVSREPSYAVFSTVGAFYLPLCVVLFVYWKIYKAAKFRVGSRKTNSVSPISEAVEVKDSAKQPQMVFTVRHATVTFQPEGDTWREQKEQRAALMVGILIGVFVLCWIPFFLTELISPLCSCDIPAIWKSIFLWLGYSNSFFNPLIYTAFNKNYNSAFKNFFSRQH
# From the text: as §1
# Sigma sigma = assay: CEREP binding profile: sigma; settings: 10 μM
# From the text: as §1
# [4] = molecular target: T14, Transporters Norepinephrine (Homo sapiens, UniProt P23975); assay: CEREP binding profile: norepinephrine transporter
# T14 construct: CEREP (contract panel)
# From the text: as §1
# Chain of Opioid and opioid-like NOP (ORL1) (P41146 whole entry, species assumed): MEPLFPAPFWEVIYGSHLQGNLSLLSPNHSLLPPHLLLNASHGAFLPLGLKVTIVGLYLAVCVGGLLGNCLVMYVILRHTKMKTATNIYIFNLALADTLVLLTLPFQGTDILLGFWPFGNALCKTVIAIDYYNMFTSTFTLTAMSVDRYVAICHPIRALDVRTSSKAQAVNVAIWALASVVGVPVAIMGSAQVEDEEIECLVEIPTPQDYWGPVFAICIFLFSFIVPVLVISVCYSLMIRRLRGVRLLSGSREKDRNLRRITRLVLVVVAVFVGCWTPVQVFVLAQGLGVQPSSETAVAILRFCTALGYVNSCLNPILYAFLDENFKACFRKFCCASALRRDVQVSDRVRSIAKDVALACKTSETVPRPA
Compound,% Inhibition [1] [%],inhibition at 10 µM (Vasopressin V1a) [%],Inhibition % (GABA BZD (central)) [%],inhibition at 10 µM (Adenosine A1) [%],inhibition at 10 µM (Prostanoid IP (PGI2)) [%],inhibition at 10 µM (Endothelin ETB) [%],inhibition at 10 µM (Neuropetide Y N1) [%],inhibition at 10 µM (Histamine H2) [%],inhibition at 10 µM (Neurokinin NK3) [%],% Inhibition (Purinergic P2Y) [%],inhibition at 10 µM (Histamine H1) [%],inhibition at 10 µM [2] [%],inhibition at 10 µM (Prostanoid EP4) [%],% Inhibition (Ca2+ channels Ca2+-L) [%],inhibition at 10 µM (Adenosine A3) [%],inhibition at 10 µM (Galanin GAL2) [%],Inhibition % (Sigma sigma) [%],further results
"CC(=O)[C@@]1(C)CC[C@H]2[C@@H]3CC=C4C[C@@H](OCc5ccccc5)CC[C@]4(C)[C@H]3CC[C@@]21C [3Bn17MeP, 3β-benzyloxy, 17α-methyl-pregn-5-en-20-one]",2,0,−16,-27,0,-13,-32,12,7,−2,3,20,25,12,1,-11,9,% Inhibition (Serotonin 5-HT1A; 10 μM): 25%; inhibition at 10 µM (Serotonin 5-HT2A): -8%; inhibition at 10 µM (Muscarinic M3): 16%; % Inhibition (Cannabinoid CB1; 10 μM): 2%; % Inhibition (Dopamine D2S; 10 μM): 6%; % Inhibition (Adrenergic beta2; 10 μM): −4%; inhibition at 10 µM (Muscarinic M1): -25%; inhibition at 10 µM [3]: 1%; inhibition at 10 µM (Muscarinic M4): 2%; % Inhibition (Dopamine D4.4; 10 μM): −10%; % Inhibition (Serotonin 5-HT5a; 10 μM): 2%; inhibition at 10 µM [4]: -1%
"CC(=O)[C@H]1CC[C@H]2[C@@H]3CC=C4C[C@@H](O)CC[C@]4(C)[C@H]3CC[C@]12C [pregnenolone, reference compound]",2,10,> 40,-25,-12,4,-11,9,11,−3,0,> 80,21,−19,11,1,26,"inhibition at 10 µM (Serotonin 5-HT1A): 12%; inhibition at 10 µM (Serotonin 5-HT2A; 5-HT2A, 10 μM, read-out: % Inhibition): -1%; inhibition at 10 µM (Muscarinic M3; M3, 10 μM, read-out: % Inhibition): 2%; Inhibition % (GABA BZD (central); listed as PREG): −43%; inhibition at 10 µM (Cannabinoid CB1): 10%; inhibition at 10 µM (Dopamine D2S): 5%; Inhibition % ([2]; 10 μM): 87%; inhibition at 10 µM (Adrenergic beta2): -5%; inhibition at 10 µM (Muscarinic M1; M1, 10 μM, read-out: % Inhibition): -14%; inhibition at 10 µM ([3]; 5-HT trans., 10 μM, read-out: % Inhibition): 1%; inhibition at 10 µM (Muscarinic M4; M4, 10 μM, read-out: % Inhibition): -4%; inhibition at 10 µM (Dopamine D4.4): 20%; inhibition at 10 µM (Serotonin 5-HT5a): 11%; inhibition at 10 µM ([4]; norepinephrine transporter, 10 μM, read-out: % Inhibition): -12%"
